Measurements: PubChem BioAssay AID330 (DTP/NCI, 2004)
“And” between values parts separate entries of the source, which are not always exact repeats. Equal entries are not always repeated. Inconclusive results and toxic doses are left out. Rule for the calls: active = survival T/C of 150% or more; inactive = T/C below 125% in these data.

Tested on: P388 leukemia ip, CD2F1 mice, survival T/C
Test: NCI In Vivo Anticancer Drug Screen. Data for tumor model P388 Leukemia (intraperitoneal) in CD2F1 (CDF1) mice
Conditions: endpoint: median survival time, higher = longer survival
Method in brief: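 Mice carrying the transplanted tumor received test compound or vehicle. Survival was recorded in each group, and the value is the treated-group measurement divided by that of the vehicle-treated control group.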

[1] = dose: 100.0 mg/kg/injection, schedule: Q01DX009 (ip), vehicle: saline
[2] = dose: 200.0 mg/kg/injection, schedule: Q01DX009 (ip), vehicle: saline
[3] = dose: 400.0 mg/kg/injection, schedule: Q01DX009 (ip), vehicle: saline
[4] = dose: 12.5 mg/kg/injection, schedule: Q01DX009 (ip), vehicle: saline with Tween-80
[5] = dose: 25.0 mg/kg/injection, schedule: Q01DX009 (ip), vehicle: saline with Tween-80
[6] = dose: 50.0 mg/kg/injection, schedule: Q01DX009 (ip), vehicle: saline with Tween-80

Measured: T/C

O=c1cc[nH]c(=O)[nH]1
inactive: dose: 32.0 mg/kg/injection, schedule: Q01DX009 (ip), vehicle: Klucel (hydroxypropylcellulose) (HPC) 99 % of control and 106 % of control | dose: 32.0 mg/kg/injection, schedule: Q01DX009 (ip), vehicle: saline with Tween-80 114 % of control | dose: 64.0 mg/kg/injection, schedule: Q01DX009 (ip), vehicle: Klucel (hydroxypropylcellulose) (HPC) 98 % of control and 100 % of control | dose: 64.0 mg/kg/injection, schedule: Q01DX009 (ip), vehicle: saline with Tween-80 100 % of control | [1] 98 % of control | dose: 128.0 mg/kg/injection, schedule: Q01DX009 (ip), vehicle: Klucel (hydroxypropylcellulose) (HPC) 99 % of control and 102 % of control | dose: 128.0 mg/kg/injection, schedule: Q01DX009 (ip), vehicle: saline with Tween-80 95 % of control | [2] 100 % of control | dose: 256.0 mg/kg/injection, schedule: Q01DX009 (ip), vehicle: Klucel (hydroxypropylcellulose) (HPC) 100 % of control and 109 % of control | dose: 256.0 mg/kg/injection, schedule: Q01DX009 (ip), vehicle: saline with Tween-80 100 % of control | [3] 102 % of control | dose: 512.0 mg/kg/injection, schedule: Q01DX009 (ip), vehicle: Klucel (hydroxypropylcellulose) (HPC) 108 % of control and 109 % of control | dose: 512.0 mg/kg/injection, schedule: Q01DX009 (ip), vehicle: saline with Tween-80 97 % of control

Cc1cccc(C(=O)NN)c1O
inactive: [4] 98 % of control | [5] 104 % of control | [6] 104 % of control | dose: 100.0 mg/kg/injection, schedule: Q01DX009 (ip), vehicle: saline with Tween-80 101 % of control

CN1OC(C#N)CC1c1ccccc1 (centres undefined)
inactive: dose: 12.5 mg/kg/injection, schedule: Q04DX002 (ip), vehicle: Klucel (hydroxypropylcellulose) (HPC) 100 % of control | dose: 25.0 mg/kg/injection, schedule: Q04DX002 (ip), vehicle: Klucel (hydroxypropylcellulose) (HPC) 99 % of control and 101 % of control | dose: 50.0 mg/kg/injection, schedule: Q04DX002 (ip), vehicle: Klucel (hydroxypropylcellulose) (HPC) 101 % of control and 112 % of control | dose: 87.5 mg/kg/injection, schedule: Q04DX002 (ip), vehicle: Klucel (hydroxypropylcellulose) (HPC) 101 % of control | dose: 100.0 mg/kg/injection, schedule: Q04DX002 (ip), vehicle: Klucel (hydroxypropylcellulose) (HPC) 103 % of control and 105 % of control and 121 % of control | dose: 350.0 mg/kg/injection, schedule: Q04DX002 (ip), vehicle: Klucel (hydroxypropylcellulose) (HPC) 100 % of control

C/C(=N\N=c1\sc2ccccc2n1CC(=O)O)c1ccccc1
inactive: dose: 100.0 mg/kg/injection, schedule: Q01DX001 (ip), vehicle: saline with Tween-80 97 % of control | dose: 200.0 mg/kg/injection, schedule: Q01DX001 (ip), vehicle: saline with Tween-80 89 % of control

CC(C)(C)c1cc2c(O)c(c1)Cc1cc(C(C)(C)C)cc(c1O)Cc1cc(C(C)(C)C)cc(c1O)Cc1cc(C(C)(C)C)cc(c1O)Cc1cc(C(C)(C)C)cc(c1O)Cc1cc(C(C)(C)C)cc(c1O)Cc1cc(C(C)(C)C)cc(c1O)Cc1cc(C(C)(C)C)cc(c1O)C2
inactive: dose: 50.0 mg/kg/injection, schedule: Q01DX005 (ip), vehicle: Klucel (hydroxypropylcellulose) (HPC) 101 % of control | dose: 100.0 mg/kg/injection, schedule: Q01DX005 (ip), vehicle: Klucel (hydroxypropylcellulose) (HPC) 90 % of control | dose: 200.0 mg/kg/injection, schedule: Q01DX005 (ip), vehicle: Klucel (hydroxypropylcellulose) (HPC) 99 % of control

COc1c[nH]c(CO)cc1=O
inactive: [1] 101 % of control and 104 % of control | [2] 108 % of control and 114 % of control | [3] 99 % of control and 114 % of control

CCCCc1ccc2nc(C)cc(N=[N+]=[N-])c2c1
inactive: dose: 60.0 mg/kg/injection, schedule: Q01DX005 (ip), vehicle: saline with Tween-80 100 % of control | dose: 120.0 mg/kg/injection, schedule: Q01DX005 (ip), vehicle: saline with Tween-80 98 % of control

C=C1CC2(C)CCC(OC(=O)C3(C)OC3C)C(C)(OC(C)=O)C2CC1=C(C)C (centres undefined)
inactive: dose: 150.0 mg/kg/injection, schedule: Q01DX001 (ip), vehicle: Klucel (hydroxypropylcellulose) (HPC) 99 % of control | dose: 300.0 mg/kg/injection, schedule: Q01DX001 (ip), vehicle: Klucel (hydroxypropylcellulose) (HPC) 98 % of control

Fc1cccc(CSC(=S)Nc2ccccc2)c1
inactive: dose: 100.0 mg/kg/injection, schedule: Q01DX001 (ip), vehicle: saline 106 % of control | dose: 200.0 mg/kg/injection, schedule: Q01DX001 (ip), vehicle: saline 102 % of control | dose: 400.0 mg/kg/injection, schedule: Q01DX001 (ip), vehicle: saline 102 % of control

Cc1cn(O)cc(C)c1=N
inactive: [4] 100 % of control | [5] 100 % of control | [6] 108 % of control

O=C(O)c1ccccc1[Se](=O)(=O)O
inactive: dose: 50.0 mg/kg/injection, schedule: Q01DX009 (ip), vehicle: saline 98 % of control | [1] 100 % of control | [2] 112 % of control
